Test results taken from patent publication US20250099515A1, “LACTOBACILLUS ACIDOPHILUS TO INCREASE AGMATINE PRODUCTION BY MICROBIOTA” (SOCIETE DES PRODUITS NESTLE S.A., priority 2021, published 2025).
Several values for one entry are separate records, joined by “and”; a condition that tells them apart may be missing. Identical values can stand only once. Like-named read-outs stand apart in the source and are kept apart here.

What was measured:
α2-Adrenoceptors = settings: Bovine adrenal cortex; cited from earlier work
α2A-Adrenoceptors = α2A-Adrenoceptors (Homo sapiens, UniProt P08913); settings: Human recombinant receptor; cited from earlier work
α2B-Adrenoceptors = α2B-Adrenoceptors (Homo sapiens, UniProt P18089); settings: Human recombinant receptor; cited from earlier work
α2C-Adrenoceptors = α2C-Adrenoceptors (Homo sapiens, UniProt P18825); settings: Human recombinant receptor; cited from earlier work
[1] = molecular target: I1-Imidazoline binding sites; settings: Bovine ventrolateral medulla; cited from earlier work
[2] = molecular target: I1-Imidazoline binding sites; settings: Bovine adrenomedullary cell; cited from earlier work
[3] = molecular target: I1-Imidazoline binding sites; settings: Human platelet-purified plasma membranes; cited from earlier work
[4] = molecular target: I1-Imidazoline binding sites; settings: Rat stomach membranes; cited from earlier work
[5] = molecular target: I2-Imidazoline binding sites; settings: Rat aorta smooth muscle cells; cited from earlier work
[6] = molecular target: I2-Imidazoline binding sites; settings: Rat whole brain membranes; cited from earlier work
[7] = molecular target: I2-Imidazoline binding sites; settings: Rat stomach membranes; cited from earlier work
[8] = molecular target: I2-Imidazoline binding sites; settings: Bovine adrenal chromaffin cells; cited from earlier work
[9] = molecular target: I2-Imidazoline binding sites; settings: Bovine endothelial cells; cited from earlier work
[10] = molecular target: I2-Imidazoline binding sites; settings: Human platelet-purified internal membranes; cited from earlier work
[11] = molecular target: I2-Imidazoline binding sites; settings: Human atrial appendages; cited from earlier work
[12] = molecular target: I2-Imidazoline binding sites; settings: Chicken brain membranes; cited from earlier work
[13] = molecular target: I2-Imidazoline binding sites; settings: Frog whole brain membranes; cited from earlier work
[14] = molecular target: I2-Imidazoline binding sites; settings: Rabbit whole brain membranes; cited from earlier work
[15] = molecular target: Presynaptic imidazoline receptor; settings: Human atrial appendages; cited from earlier work
[16] = tested on: Presynaptic imidazoline receptor; settings: Rabbit aorta; at 0.1 and 1 μM; cited from earlier work
[17] = molecular target: NMDA receptor, polyamine binding site; settings: Rat cerebral cortex; cited from earlier work
[18] = molecular target: NMDA receptor, MK-801 binding site; settings: Rat cerebral cortex; cited from earlier work
NMDA receptor = molecular target: T1, NMDA receptor; settings: Rat cerebral membrane; cited from earlier work
T1 construct: Ki; other: Rat cerebral membrane

[19] = molecular target: NMDA receptor, NR1-ζ/NR2-ε1 (Mus musculus, UniProt P35436+P35438); settings: Recombinant receptor; cited from earlier work
[20] = molecular target: NMDA receptor, NR1-ζ/NR2-ε2 (Mus musculus, UniProt P35438+Q01097); settings: Recombinant receptor; cited from earlier work
[21] = molecular target: NMDA receptor, NR1-ζ/NR2-ε3 (Mus musculus, UniProt P35438+Q01098); settings: Recombinant receptor; cited from earlier work
[22] = molecular target: NMDA receptor, NR1-ζ/NR2-ε4 (Mus musculus, UniProt P35438+Q03391); settings: Recombinant receptor; cited from earlier work
5-HT3 receptor = 5-HT3 receptor (Mus musculus, UniProt P23979); settings: Mouse N1E-115 cells; cited from earlier work
σ2-Binding sites [23] = molecular target: σ2-Binding sites (Rattus norvegicus, UniProt Q5U3Y7); settings: Rat stomach membranes; cited from earlier work
σ2-Binding sites [24] = molecular target: σ2-Binding sites (Mus musculus, UniProt Q8VD00); settings: Mouse N1E-115 cells; cited from earlier work
[25] = molecular target: Nicotinic acetylcholine receptors; settings: Chick retina; cited from earlier work
α-2 adrenoreceptors = settings: depending on organs/cell type; read-out: Affinity for α-2 adrenoreceptors (Ki); cited from earlier work
[26] = cited from earlier work
[27] = tested on: mouse kidney proximal tubule, Ras transformed NIH-3T3 fibroblast, mouse glomerular mesangial, human Schwann tumor, rat glomerular endothelial cells, human …; settings: several ex-vivo and in-vitro cell assays; cited from earlier work
HTC rat hepatoma cells = settings: cited from earlier work
[28] = tested on: ODC and SSAT in liver and kidney; settings: 456.6 mg/kg i.p., suiss female mice; cited from earlier work
colonic microbiota = assay: Prodigest short-term colonic incubations with fecal inocula of five donors; type: cell-based, human; settings: FIG. 5
Procedure: Fecal material was collected from five healthy adult donors. Fecal suspensions were prepared and mixed with an internally optimized cryoprotectant. The obtained suspensions were aliquoted, flash frozen and then preserved at −80° C. (cryostock). Just before the experiment, fecal samples were defrosted and immediately added to the reactors. A short-term screening assay typically consists of a colonic incubation of a single dose of a test compound under conditions representative for the proximal large intestine, using bacterial inocula from selected donors as microbial sources. At the start of the short-term colonic incubations, test ingredients were added to a sugar-depleted nutritional medium containing basal nutrients of the colon. Because nutrients of this sugar-depleted nutritional medium will also be fermented by the colonic microbiota, a blank containing only the sugar-depleted nutritional medium (without product) was included for each donor. Finally, fecal inocula of five donors were added (healthy adult humans with no history of antibiotic use 6 months preceding the experiment). […] Reactors were incubated for 48 h at 37° C., under shaking (90 rpm) and anaerobic conditions. The incubations were performed in fully independent reactors with sufficiently high volume in order to not only ensure robust microbial fermentation, but also to allow the collection of multiple samples over time. Sample collection enables assessment of metabolite production and thus to understand the complex microbial interactions that are taking place. An assessment was made of the change in pH, and of gas, SCFA, ammonium and lactate production at the start of the incubation and after 6 h, 24 h and 48 h. Quantitative deep shotgun sequencing was performed at the start and after 24 h and 48 h of incubation. Targeted metabolic analysis of eight polyamines, an amino acid and a neurotransmitter was performed at the start of the incubation, and after 6 h, 24 h and 48 h. Targeted metabolic analysis: Eight different polyamines were targeted, more specifically putrescine, agmatine, acetyl-agmatine, omithine, spermidine, spermine, citrulline and 4-guanidinobutanoic acid. Additionally, samples were analyzed for amino acid arginine and neurotransmitter gamma-Aminobutyric acid (GABA).

[29] = molecular target: imidazoline or α-2-adrenergic receptors; settings: cited from earlier work
[30] = tested on: gut microbial polyamines, longevity; settings: arginine intake from 0 to 9 mg/g body weight; abolished after antibiotics use; cited from earlier work
[31] = No observed effect level (max dose without toxicity); type: in vivo; settings: [33]
[32] = rat, ten minutes after radiolabeled intravenous (IV) injection; cited from earlier work
[33] = human, putrescine in test meal; cited from earlier work
autophagy = settings: depending on organ/cell type; cited from earlier work
polyamines synthesis = settings: mouse model of osteoporosis; cited from earlier work

5-HT3 receptor, sequence (P23979 24-489): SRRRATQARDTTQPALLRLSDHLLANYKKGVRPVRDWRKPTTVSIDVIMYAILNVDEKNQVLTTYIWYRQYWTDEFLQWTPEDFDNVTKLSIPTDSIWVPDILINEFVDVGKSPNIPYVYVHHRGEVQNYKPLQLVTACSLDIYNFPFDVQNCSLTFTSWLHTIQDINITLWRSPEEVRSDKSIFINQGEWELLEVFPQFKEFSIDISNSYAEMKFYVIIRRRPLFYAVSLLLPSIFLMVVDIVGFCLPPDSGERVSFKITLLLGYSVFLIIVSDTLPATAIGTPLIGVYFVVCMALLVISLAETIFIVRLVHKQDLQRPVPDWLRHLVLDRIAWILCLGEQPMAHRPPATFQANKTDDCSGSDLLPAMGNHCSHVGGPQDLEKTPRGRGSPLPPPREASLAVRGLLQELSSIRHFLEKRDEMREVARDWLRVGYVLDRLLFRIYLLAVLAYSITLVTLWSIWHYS
σ2-Binding sites (Mus musculus, UniProt Q8VD00), sequence (Q8VD00 whole entry): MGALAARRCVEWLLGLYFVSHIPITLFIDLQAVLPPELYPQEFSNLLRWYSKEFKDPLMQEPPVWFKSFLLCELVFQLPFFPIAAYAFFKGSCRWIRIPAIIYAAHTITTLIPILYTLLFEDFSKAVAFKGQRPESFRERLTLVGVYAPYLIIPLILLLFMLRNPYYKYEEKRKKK
α2A-Adrenoceptors, sequence (P08913 whole entry): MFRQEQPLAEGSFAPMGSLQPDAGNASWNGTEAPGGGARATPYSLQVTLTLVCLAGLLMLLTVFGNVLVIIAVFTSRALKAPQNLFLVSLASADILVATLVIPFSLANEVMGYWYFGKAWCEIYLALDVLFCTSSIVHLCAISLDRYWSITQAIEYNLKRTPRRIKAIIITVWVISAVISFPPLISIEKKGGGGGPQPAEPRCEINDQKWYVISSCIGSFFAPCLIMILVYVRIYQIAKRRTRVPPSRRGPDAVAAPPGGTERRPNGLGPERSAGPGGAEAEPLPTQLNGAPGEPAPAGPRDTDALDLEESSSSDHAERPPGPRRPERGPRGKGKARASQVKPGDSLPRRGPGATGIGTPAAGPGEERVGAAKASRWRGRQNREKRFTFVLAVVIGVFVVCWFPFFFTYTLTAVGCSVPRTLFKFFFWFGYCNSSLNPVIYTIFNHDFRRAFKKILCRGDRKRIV
NMDA receptor, NR1-ζ/NR2-ε4, sequence (Q03391 28-1323, other chains not shown): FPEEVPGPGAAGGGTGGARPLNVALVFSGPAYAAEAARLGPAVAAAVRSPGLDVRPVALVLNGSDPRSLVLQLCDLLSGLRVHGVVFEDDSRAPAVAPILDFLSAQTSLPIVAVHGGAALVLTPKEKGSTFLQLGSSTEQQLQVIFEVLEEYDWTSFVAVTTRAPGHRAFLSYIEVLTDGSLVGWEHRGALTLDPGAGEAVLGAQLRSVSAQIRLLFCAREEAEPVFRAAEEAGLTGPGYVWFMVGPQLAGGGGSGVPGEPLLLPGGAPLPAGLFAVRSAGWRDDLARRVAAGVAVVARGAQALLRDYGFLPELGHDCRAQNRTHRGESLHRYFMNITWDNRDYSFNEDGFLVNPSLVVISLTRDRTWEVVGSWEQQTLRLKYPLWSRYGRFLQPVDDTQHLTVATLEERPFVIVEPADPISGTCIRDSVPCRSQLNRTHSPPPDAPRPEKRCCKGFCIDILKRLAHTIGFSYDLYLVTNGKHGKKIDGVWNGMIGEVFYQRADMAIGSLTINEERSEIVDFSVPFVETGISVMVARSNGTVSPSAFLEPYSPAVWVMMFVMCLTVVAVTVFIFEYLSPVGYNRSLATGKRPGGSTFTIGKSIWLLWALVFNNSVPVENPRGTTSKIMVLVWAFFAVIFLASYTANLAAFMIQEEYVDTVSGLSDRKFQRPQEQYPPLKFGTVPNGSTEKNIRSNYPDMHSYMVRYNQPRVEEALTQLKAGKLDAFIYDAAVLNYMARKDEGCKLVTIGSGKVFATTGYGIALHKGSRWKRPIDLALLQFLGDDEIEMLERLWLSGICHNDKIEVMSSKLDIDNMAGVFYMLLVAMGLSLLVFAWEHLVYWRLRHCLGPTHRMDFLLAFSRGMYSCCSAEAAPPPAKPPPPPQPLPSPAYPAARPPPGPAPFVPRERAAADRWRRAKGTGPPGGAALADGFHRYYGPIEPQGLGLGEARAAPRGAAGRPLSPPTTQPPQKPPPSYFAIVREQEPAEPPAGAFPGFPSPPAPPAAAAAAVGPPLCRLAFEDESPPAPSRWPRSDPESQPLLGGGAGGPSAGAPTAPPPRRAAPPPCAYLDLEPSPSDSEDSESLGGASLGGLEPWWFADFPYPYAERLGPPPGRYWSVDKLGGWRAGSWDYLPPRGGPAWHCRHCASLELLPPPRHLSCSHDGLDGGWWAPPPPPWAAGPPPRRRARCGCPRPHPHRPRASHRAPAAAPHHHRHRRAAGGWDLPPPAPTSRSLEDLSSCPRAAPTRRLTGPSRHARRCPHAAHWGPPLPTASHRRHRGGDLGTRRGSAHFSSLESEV
NMDA receptor, NR1-ζ/NR2-ε1, sequence (P35436 20-1464 limits assumed, other chains not shown): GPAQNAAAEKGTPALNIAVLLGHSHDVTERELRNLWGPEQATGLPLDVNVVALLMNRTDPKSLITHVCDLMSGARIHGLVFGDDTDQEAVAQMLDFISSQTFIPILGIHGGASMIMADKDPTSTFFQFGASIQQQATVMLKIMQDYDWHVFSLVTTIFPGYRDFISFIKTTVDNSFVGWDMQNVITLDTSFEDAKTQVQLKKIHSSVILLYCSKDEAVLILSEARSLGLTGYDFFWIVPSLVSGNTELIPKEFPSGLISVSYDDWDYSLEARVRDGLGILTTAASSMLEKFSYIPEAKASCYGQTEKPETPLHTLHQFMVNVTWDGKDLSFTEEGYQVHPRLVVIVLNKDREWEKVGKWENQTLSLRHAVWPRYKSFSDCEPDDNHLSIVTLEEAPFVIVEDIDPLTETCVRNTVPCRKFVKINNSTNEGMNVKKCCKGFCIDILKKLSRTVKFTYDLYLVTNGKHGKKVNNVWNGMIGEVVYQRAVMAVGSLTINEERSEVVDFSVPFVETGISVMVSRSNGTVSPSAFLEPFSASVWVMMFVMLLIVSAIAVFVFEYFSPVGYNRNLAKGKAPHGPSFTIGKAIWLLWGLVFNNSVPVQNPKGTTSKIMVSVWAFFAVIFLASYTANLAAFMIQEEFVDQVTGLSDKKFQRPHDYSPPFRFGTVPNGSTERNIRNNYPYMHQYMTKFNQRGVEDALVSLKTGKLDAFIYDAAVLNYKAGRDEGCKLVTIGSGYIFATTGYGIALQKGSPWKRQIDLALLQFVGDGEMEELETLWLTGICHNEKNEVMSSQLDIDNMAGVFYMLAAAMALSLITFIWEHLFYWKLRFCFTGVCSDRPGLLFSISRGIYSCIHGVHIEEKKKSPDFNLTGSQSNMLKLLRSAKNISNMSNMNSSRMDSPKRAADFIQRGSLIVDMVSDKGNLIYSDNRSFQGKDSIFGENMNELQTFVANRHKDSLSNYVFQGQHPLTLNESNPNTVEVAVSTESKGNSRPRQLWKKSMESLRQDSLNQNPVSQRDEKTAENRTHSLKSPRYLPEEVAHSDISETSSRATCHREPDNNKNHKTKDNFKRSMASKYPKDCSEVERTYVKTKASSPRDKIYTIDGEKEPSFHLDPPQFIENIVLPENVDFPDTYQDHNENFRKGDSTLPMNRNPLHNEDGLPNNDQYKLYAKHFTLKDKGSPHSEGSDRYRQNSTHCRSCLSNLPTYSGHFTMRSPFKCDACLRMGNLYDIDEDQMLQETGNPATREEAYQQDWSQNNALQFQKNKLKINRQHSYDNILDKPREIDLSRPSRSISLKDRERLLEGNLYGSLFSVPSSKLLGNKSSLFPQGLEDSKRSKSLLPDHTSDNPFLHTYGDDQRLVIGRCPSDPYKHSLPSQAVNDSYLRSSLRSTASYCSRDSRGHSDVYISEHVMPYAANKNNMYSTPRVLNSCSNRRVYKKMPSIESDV
α2B-Adrenoceptors, sequence (P18089 whole entry): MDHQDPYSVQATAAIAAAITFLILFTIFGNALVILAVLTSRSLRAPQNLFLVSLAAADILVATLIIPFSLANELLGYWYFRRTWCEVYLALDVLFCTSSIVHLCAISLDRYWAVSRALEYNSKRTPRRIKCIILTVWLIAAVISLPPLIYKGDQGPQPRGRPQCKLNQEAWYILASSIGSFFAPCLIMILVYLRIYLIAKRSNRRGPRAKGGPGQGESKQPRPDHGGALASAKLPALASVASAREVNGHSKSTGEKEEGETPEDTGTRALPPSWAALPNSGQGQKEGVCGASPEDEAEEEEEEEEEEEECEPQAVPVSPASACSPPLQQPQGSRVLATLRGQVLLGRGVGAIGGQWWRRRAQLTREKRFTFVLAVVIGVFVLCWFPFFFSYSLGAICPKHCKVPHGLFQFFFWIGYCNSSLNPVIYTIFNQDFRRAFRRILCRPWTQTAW
α2C-Adrenoceptors, sequence (P18825 whole entry): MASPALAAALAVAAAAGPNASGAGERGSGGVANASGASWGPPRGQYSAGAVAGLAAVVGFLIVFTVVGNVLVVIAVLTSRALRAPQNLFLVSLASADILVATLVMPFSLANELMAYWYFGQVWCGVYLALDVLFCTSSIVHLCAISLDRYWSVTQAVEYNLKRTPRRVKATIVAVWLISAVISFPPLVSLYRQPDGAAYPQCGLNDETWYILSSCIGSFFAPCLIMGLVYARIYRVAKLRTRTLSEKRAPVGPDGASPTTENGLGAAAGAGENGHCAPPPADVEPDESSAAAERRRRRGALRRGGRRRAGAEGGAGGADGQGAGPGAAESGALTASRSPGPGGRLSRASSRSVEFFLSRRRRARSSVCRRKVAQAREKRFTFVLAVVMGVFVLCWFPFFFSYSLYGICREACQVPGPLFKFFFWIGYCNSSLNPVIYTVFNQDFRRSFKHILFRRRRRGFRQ
σ2-Binding sites (Rattus norvegicus, UniProt Q5U3Y7), sequence (Q5U3Y7 whole entry): as the sequence (Q8VD00 whole entry) above, with L4V, A5T, L26M, V33L, L71F, A105V, L118I, V127I, S136N, Y169F counted along it

**Q.** Which Ki (α2-Adrenoceptors) does the source give for `NCCCCN=C(N)N` [Agmatine, (4-aminobutyl) guanidine] here?
**A.** 11 to 20 µM and 17 µM

**Q.** What about the Ki (α2A-Adrenoceptors) of the same compound?
**A.** 47 µM

**Q.** What about the Ki (α2B-Adrenoceptors) of the same compound?
**A.** 164 µM

**Q.** And the Ki (α2C-Adrenoceptors)?
**A.** 26.3 µM

**Q.** And the Ki [1]?
**A.** 0.7 µM

**Q.** What about the Ki [2] of the same compound?
**A.** 0.127 µM

**Q.** What about the Ki [3] of the same compound?
**A.** 0.033 µM

**Q.** And the Ki [4]?
**A.** 0.098 µM

**Q.** And the Ki [5]?
**A.** 0.24 µM

**Q.** What about the Ki [6] of the same compound?
**A.** 417 µM

**Q.** What about the Ki [7] of the same compound?
**A.** 266 µM

**Q.** What about the Ki [8] of the same compound?
**A.** 6 µM

**Q.** What about the Ki [9] of the same compound?
**A.** 0.24 µM

**Q.** And the Ki [10]?
**A.** 74.4 µM

**Q.** And the Ki [11]?
**A.** > 100 µM

**Q.** What about the Ki [12] of the same compound?
**A.** 0.63 µM

**Q.** And the Ki [13]?
**A.** 7.5 µM

**Q.** And the Ki [14]?
**A.** 856 µM

**Q.** And the Ki [15]?
**A.** > 300 µM

**Q.** What about the Inhibition [16] of the same compound?
**A.** Inhibition at 0.1 and 1 μM

**Q.** What about the Ki [17] of the same compound?
**A.** 14.8 µM

**Q.** And the Ki [18]?
**A.** 219 µM

**Q.** What about the Ki (NMDA receptor) of the same compound?
**A.** 50 µM

**Q.** What about the IC50 [19] of the same compound?
**A.** 286 µM

**Q.** What about the IC50 [20] of the same compound?
**A.** 330 µM

**Q.** What about the IC50 [21] of the same compound?
**A.** 326 µM

**Q.** And the IC50 [22]?
**A.** 289 µM

**Q.** And the IC50 (5-HT3 receptor)?
**A.** 708 µM

**Q.** And the Ki (5-HT3 receptor)?
**A.** > 1000 µM

**Q.** And the Ki (σ2-Binding sites [23])?
**A.** 668 µM

**Q.** And the IC50 (σ2-Binding sites [24])?
**A.** > 1000 µM

**Q.** And the IC50 [25]?
**A.** > 1000 µM

**Q.** What about the Ki (α-2 adrenoreceptors) of the same compound?
**A.** 0.8 to 164 µM

**Q.** What about the “no observed effect level (max dose without toxicity)” value ([26]; in vivo) of the same compound?
**A.** 2.67 g daily

**Q.** What about the “level at which agmatine interferes with polyamine metabolism, nitric oxide synthase and promotes antiproliferative effects” value [27] of the same compound?
**A.** 1 mM

**Q.** What about the “level at which agmatine interferes with polyamine metabolism, nitric oxide synthase and promotes antiproliferative effects” value (HTC rat hepatoma cells) of the same compound?
**A.** 0.01 mM

**Q.** What about the “effect on ODC and SSAT in liver and kidney” value [28] of the same compound?
**A.** inhibition of ODC and activation of SSAT

**Q.** What about the “effect on epithelial cell proliferation in kidney renal tubule” value [28] of the same compound?
**A.** partial reduction of epithelial cell proliferation

**Q.** Which results are given for `N=C(N)NCCC[C@H](N)C(=O)O` [Arginine, arginine]?
**A.** agmatine produced (colonic microbiota; stool sample of donor A): about 5 μM; agmatine produced (colonic microbiota; stool sample of donor B): about 3 μM; agmatine produced (colonic microbiota; stool sample of donor C): did not produce agmatine; agmatine produced (colonic microbiota; stool sample of donor D): did not produce agmatine; agmatine produced (colonic microbiota; stool sample of donor E): about 5 μM; Ki [29]: 5000 µM; effect on fecal concentration of putrescine and spermidine [30]: increased

**Q.** Which results are given for `NCCCCN` [Putrescine, putrescine]?
**A.** no observed effect level (max dose without toxicity), total amount in brackets [31]: (~12 g); no observed effect level (max dose without toxicity) [26, 33]: 180 mg/kg body mg/kg body weight/day; plasma decrease [32]: 67%; recovered in blood [33]: Up to 20%

**Q.** For `NCCCCNCCCN` [Spermidine, spermidine], which “no observed effect level (max dose without toxicity), total amount in brackets” value [31] is on record?
**A.** (~5.4 g)

**Q.** And the “Dose required for cytoprotective effect/e.g. autophagy” value (autophagy)?
**A.** 10 to 100 µM

**Q.** What about the “no observed effect level (max dose without toxicity)” value [26, 33] of the same compound?
**A.** 83 mg/kg body mg/kg body weight/day

**Q.** And the plasma decrease [32]?
**A.** 89%

**Q.** Which plasma decrease [32] does the source give for `NCCCNCCCCNCCCN` [Spermine, spermine] here?
**A.** 30%

**Q.** With `CC(=O)NCC(=O)O.CC(=O)NCC(=O)O.N=C(N)c1ccc(N=NNc2ccc(C(=N)N)cc2)cc1` [diminazene aceturate] as the compound, how does the “effect on warm-induced bone benefits” value (polyamines synthesis) read?
**A.** limited the warm-induced beneficial effects
